According to publication doi:10.1101/2022.08.24.505199v2 (biorxiv, 2025):

How the values were obtained:
[1] = biological target: NKA α1 purified from pig kidney (outer medulla) (Sus scrofa, UniProt P05024); assay: SPR; type: binding
[2] = biological target: Mouse NKA α3β1 (Mus musculus, UniProt Q6PIC6); assay: NKA ATPase activity inhibition, dose response; type: biochemical

C=Cc1cccc2c1N(C)Cc1cc3c(cc1-2)OCO3 [HLY72]
Kd [1]: 4.2 µM
IC50 [2]: 18.6 µM
